US20240158385A1, “NOVEL COMPOUNDS” (Cerevance, Inc., priority 2021, published 2024)

Each compound was assayed against T1, human KCNK13 (Homo sapiens, UniProt Q9HB14) (assay: KCNK13 antagonist activity, thallium (Tl+) flux FLIPR assay). Conditions: HEK 293 cells stably expressing human KCNK13; Tl+ sensitive dye, FLIPR; compounds 15 minutes prior to thallium sulfate; 10 point half log curves from 10 PM; read-out: hKCNK13 IC50.
T1 construct: expressed in transfected cells
T1 sequence (Q9HB14 1-408): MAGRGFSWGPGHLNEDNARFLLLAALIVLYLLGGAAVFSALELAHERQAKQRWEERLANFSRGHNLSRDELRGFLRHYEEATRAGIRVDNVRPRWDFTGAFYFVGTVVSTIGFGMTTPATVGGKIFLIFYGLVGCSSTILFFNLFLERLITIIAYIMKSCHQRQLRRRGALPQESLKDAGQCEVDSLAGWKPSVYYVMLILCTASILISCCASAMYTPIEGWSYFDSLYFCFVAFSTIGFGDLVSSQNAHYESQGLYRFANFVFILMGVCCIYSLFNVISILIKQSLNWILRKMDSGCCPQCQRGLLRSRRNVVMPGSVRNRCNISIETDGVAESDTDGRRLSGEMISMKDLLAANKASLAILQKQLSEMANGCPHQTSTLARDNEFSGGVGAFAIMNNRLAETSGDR
Format: cell-based
Protocol: KCNK13 antagonist activity was determined by measuring changes in intracellular Thallium (Tl^+) concentrations using a Tl^+ sensitive fluorescent dye. The changes in fluorescent signal were monitored by Fluorescent Imaging Plate Reader (FLIPR™) technology available from Molecular Devices, LLC, US. KCNK13 mediated increases in intracellular Tl+concentration were readily detected by addition of a thallium sulfate stimulus. 24 hours prior to the assay, human embryonic kidney 293 cells (HEK 293 cells) stably expressing human KCNK13 were seeded in cell culture medium in PDL coated black, clear-bottom 384-well plates (commercially available from Corning Inc., 356663) and grown overnight at 37° C., 5% CO2. On the day of the assay, cell culture media was removed and cells were loaded with potassium dye (commercially sold by Molecular Devices, LLC, US, R8222) for 1 hour at room temperature in the dark. Test compounds (at 10 point half log concentration response curves from […]) were added to cells for 15 minutes prior to the addition of thallium sulfate to all wells. The IC50 values were determined from ten point concentration response curves. Curves were generated using the average of two wells for each data point.
With Nc1nonc1-c1nc2c(F)cccc2n1Cc1ccncc1 (single isomer, unassigned) [Example 121, 4-[4-fluoro-1-(pyridin-4-ylmethyl)benzimidazol-2-yl]-1,2,5-oxadiazol-3-amine] the IC50 was less than 100 nM.
Compound Nc1nonc1-c1nc2c(F)cccc2n1Cc1ccc(C(F)(F)F)nn1 (single isomer, unassigned) [Example 167, 4-(4-fluoro-1-((6-(trifluoromethyl)pyridazin-3-yl)methyl)-benzimidazol-2-yl)-1,2,5-oxadiazol-3-amine] has an IC50 of less than 1000 nM.
With Nc1nonc1-c1nc2cccc(F)c2n1Cc1ccnnc1 (single isomer, unassigned) [Example 132, 4-(7-fluoro-1-(pyridazin-4-ylmethyl)-benzimidazol-2-yl)-1,2,5-oxadiazol-3-amine] the IC50 was less than 50 nM.
COc1ccc(Cn2c(-c3nonc3N)nc3c(F)cccc32)nn1 (single isomer, unassigned) [Example 153, 4-(4-fluoro-1-((6-methoxypyridazin-3-yl)methyl)-benzimidazol-2-yl)-1,2,5-oxadiazol-3-amine] was tested, and the IC50 was less than 200 nM.
Cc1nonc1-c1nc2ccccc2n1Cc1cccnc1 [Example 101, 3-methyl-4-[1-(pyridin-3-ylmethyl)benzimidazol-2-yl]-1,2,5-oxadiazole] gave an IC50 of less than 100 nM.
Cc1nonc1-c1nc2ccncc2n1Cc1cccnc1 [Example 110, 3-methyl-4-[3-(pyridin-3-ylmethyl)imidazo[4,5-c]pyridin-2-yl]-1,2,5-oxadiazole] showed an IC50 of less than 500 nM.
COc1cc(Cn2c(-c3nonc3N)nc3cccc(F)c32)ccn1 (single isomer, unassigned) [Example 183, 4-(7-fluoro-1-((2-methoxypyridin-4-yl)methyl)-benzimidazol-2-yl)-1,2,5-oxadiazol-3-amine] gave an IC50 of less than 100 nM.
Cc1nonc1-c1nc2ccccc2n1Cc1ccc(S(C)(=O)=O)nc1 [Example 58, 3-methyl-4-[1-[(6-(methylsulfonyl)pyridin-3-yl)methyl]benzimidazol-2-yl]-1,2,5-oxadiazole] was tested, and the IC50 was less than 100 nM.
Cc1nonc1-c1nc2c(F)cccc2n1Cc1cnc(C#N)cn1 [Example 42, 5-[[4-fluoro-2-(4-methyl-1,2,5-oxadiazol-3-yl)benzimidazol-1-yl]methyl]pyrazine-2-carbonitrile] gave an IC50 of less than 1000 nM.
With Cc1nonc1-c1nc2ccccc2n1Cc1cc[n+]([O-])cc1 [Example 77, 3-methyl-4-[1-[(1-oxidopyridin-1-ium-4-yl)methyl]benzimidazol-2-yl]-1,2,5-oxadiazole] the IC50 was less than 1000 nM.
For Cc1ncc(Cn2c(-c3nonc3C)nc3ccccc32)cn1 [Example 64, 3-methyl-4-[1-[(2-methylpyrimidin-5-yl)methyl]benzimidazol-2-yl]-1,2,5-oxadiazole], the IC50 was less than 200 nM.
In the case of Cc1cc(C)nc(Cn2c(-c3nonc3C)nc3ccccc32)c1 [Example 75, 3-[1-[(4,6-dimethylpyridin-2-yl)methyl]benzimidazol-2-yl]-4-methyl-1,2,5-oxadiazole], the IC50 is reported as less than 500 nM.
For Cc1cn(C)nc1-c1nc2ccccc2n1Cc1cccnc1 [Example 113, 2-(1,4-dimethylpyrazol-3-yl)-1-(pyridin-3-ylmethyl)benzimidazole], the IC50 was less than 500 nM.
Compound N#Cc1cnc(Cn2c(-c3nonc3N)nc3c(F)cccc32)cn1 [Example 36, 5-[[2-(4-amino-1,2,5-oxadiazol-3-yl)-4-fluoro-benzimidazol-1-yl]methyl]pyrazine-2-carbonitrile] has an IC50 of less than 100 nM.
CNc1ccc(Cn2c(-c3nonc3C)nc3ccccc32)cn1 [Example 73, N-methyl-5-[[2-(4-methyl-1,2,5-oxadiazol-3-yl)benzimidazol-1-yl]methyl]pyridin-2-amine] showed an IC50 of less than 500 nM.
Cc1nonc1-c1nc2c(F)c(F)ccc2n1Cc1cccnn1 (single isomer, unassigned) [Example 171, 3-(4,5-difluoro-1-(pyridazin-3-ylmethyl)-benzimidazol-2-yl)-4-methyl-1,2,5-oxadiazole] gave an IC50 of less than 500 nM.
In the case of Nc1nonc1-c1nc2c(F)cncc2n1Cc1cccnn1 (single isomer, unassigned) [Example 188, 4-(7-fluoro-3-(pyridazin-3-ylmethyl)-3H-imidazo[4,5-c]pyridin-2-yl)-1,2,5-oxadiazol-3-amine], the IC50 is reported as less than 5000 nM.
COc1ccc(Cn2c(-c3nonc3C)nc3cccc(F)c32)cn1 [Example 43, 3-[7-fluoro-1-[(6-methoxypyridin-3-yl)methyl]benzimidazol-2-yl]-4-methyl-1,2,5-oxadiazole] showed an IC50 of less than 1000 nM.
Compound N#Cc1ncc(Cn2c(-c3nonc3N)nc3cccc(F)c32)cn1 (single isomer, unassigned) [Example 25, 5-[[2-(4-amino-1,2,5-oxadiazol-3-yl)-7-fluoro-benzimidazol-1-yl]methyl]pyrimidine-2-carbonitrile] has an IC50 of less than 50 nM.
For COc1ccc(Cn2c(-c3nonc3N)nc3cccc(F)c32)cn1 [Example 10, 4-[7-fluoro-1-[(6-methoxypyridin-3-yl)methyl]benzimidazol-2-yl]-1,2,5-oxadiazol-3-amine], the IC50 was less than 100 nM.
Nc1nonc1-c1nc2ccc(F)cc2n1Cc1ccncc1 [Example 91, 4-[6-fluoro-1-(pyridin-4-ylmethyl)benzimidazol-2-yl]-1,2,5-oxadiazol-3-amine] was tested, and the IC50 was less than 50 nM.
Nc1nonc1-c1nc2c(F)cccc2n1Cc1ccncn1 (single isomer, unassigned) [Example 135, 4-(4-fluoro-1-(pyrimidin-4-ylmethyl)-benzimidazol-2-yl)-1,2,5-oxadiazol-3-amine] gave an IC50 of less than 200 nM.
COc1ccc(Cn2c(-c3nonc3C)nc3ccccc32)cn1 [Example 53, 3-[1-[(6-methoxypyridin-3-yl)methyl]benzimidazol-2-yl]-4-methyl-1,2,5-oxadiazole] was tested, and the IC50 was less than 100 nM.
Cc1conc1-c1nc2cccc(F)c2n1Cc1cccnn1 [Example 182, 3-(7-fluoro-1-(pyridazin-3-ylmethyl)-benzimidazol-2-yl)-4-methylisoxazole] showed an IC50 of less than 200 nM.
In the case of Nc1nonc1-c1nc2ccccc2n1Cc1ccncn1 [Example 106, 4-[1-(pyrimidin-4-ylmethyl)benzimidazol-2-yl]-1,2,5-oxadiazol-3-amine], the IC50 is reported as less than 200 nM.
Nc1nonc1-c1nc2c(F)cccc2n1Cc1ccc(Cl)nn1 (single isomer, unassigned) [Example 149, 4-(1-((6-chloropyridazin-3-yl)methyl)-4-fluoro-benzimidazol-2-yl)-1,2,5-oxadiazol-3-amine] gave an IC50 of less than 100 nM.
Compound Cc1nonc1-c1nc2cccc(F)c2n1Cc1cnc(C#N)nc1 [Example 44, 5-[[7-fluoro-2-(4-methyl-1,2,5-oxadiazol-3-yl)benzimidazol-1-yl]methyl]pyrimidine-2-carbonitrile] has an IC50 of less than 50 nM.
Work on Cc1nonc1-c1nc2cccnc2n1Cc1cncnc1 [Example 13, 3-methyl-4-[3-(pyrimidin-5-ylmethyl)imidazo[4,5-b]pyridin-2-yl]-1,2,5-oxadiazole] yielded an IC50 of less than 200 nM.
For Cc1nonc1-c1nc2ccccc2n1Cc1ccccn1 [Example 79, 3-methyl-4-[1-(pyridin-2-ylmethyl)benzimidazol-2-yl]-1,2,5-oxadiazole], the IC50 was less than 500 nM.
Cc1nonc1-c1nc2c(F)ccc(F)c2n1Cc1cncnc1 [Example 84, 3-[4,7-difluoro-1-(pyrimidin-5-ylmethyl)benzimidazol-2-yl]-4-methyl-1,2,5-oxadiazole] was tested, and the IC50 was less than 100 nM.
Work on Cc1nonc1-c1nc2ccc(F)c(F)c2n1Cc1cnc(C#N)nc1 [Example 1, 5-[[6,7-difluoro-2-(4-methyl-1,2,5-oxadiazol-3-yl)benzimidazol-1-yl]methyl]pyrimidine-2-carbonitrile] yielded an IC50 of less than 100 nM.
CNc1nonc1-c1nc2cccc(F)c2n1Cc1cccnn1 [Example 178, 4-(7-fluoro-1-(pyridazin-3-ylmethyl)-benzimidazol-2-yl)-N-methyl-1,2,5-oxadiazol-3-amine] gave an IC50 of less than 5000 nM.
Cc1snnc1-c1nc2cccc(F)c2n1Cc1cccnc1 (single isomer, unassigned) [Example 128, 4-[7-fluoro-1-(pyridin-3-ylmethyl)benzimidazol-2-yl]-5-methyl-1,2,3-thiadiazole] gave an IC50 of less than 100 nM.
Cc1nonc1-c1nc2c(F)cccc2n1Cc1cncnc1 [Example 9, 3-[4-fluoro-1-(pyrimidin-5-ylmethyl)benzimidazol-2-yl]-4-methyl-1,2,5-oxadiazole] showed an IC50 of less than 100 nM.
Work on Cc1nsnc1-c1nc2ccccc2n1Cc1cccnc1 [Example 127, 3-methyl-4-[1-(pyridin-3-ylmethyl)benzimidazol-2-yl]-1,2,5-thiadiazole] yielded an IC50 of less than 100 nM.
Compound CCOc1cccc2nc(-c3nonc3C)n(Cc3ccncc3)c12 [Example 70, 3-[7-ethoxy-1-(pyridin-4-ylmethyl)benzimidazol-2-yl]-4-methyl-1,2,5-oxadiazole] has an IC50 of less than 500 nM.
